Test results published in PubChem BioAssay AID2060606 (Molecular Pharmacology Branch, DTP, NCI, 2025).

Tested on: 922993-354-T-J3-PDC complex spheroids, viability, % test/control
Test: Anticancer human tumor 922993-354-T-J3-PDC patient-derived endometrial carcinoma cell line growth inhibition [CLK]
Settings: for IC50: curve of first compound; for viability, T/C: stronger effect = lower value
Outline: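 Patient-derived tumor cells grown as complex spheroids with HUVEC endothelial cells and mesenchymal stem cells, treated with drug combinations. Concentrations descend in half-log steps from near clinical Cmax, or from 10 microM if Cmax unknown.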

[1] = second compound 0.0316 µM, first compound 0.0316 µM
[2] = second compound 0.0316 µM, first compound 0.1 µM
[3] = second compound 0.0316 µM, first compound 0.316 µM
[4] = second compound 0.0316 µM, first compound 1 µM
[5] = second compound 0.0316 µM, first compound 3.16 µM
[6] = second compound 0.0316 µM, first compound 10 µM
[7] = second compound 0.1 µM, first compound 0.0316 µM
[8] = second compound 0.1 µM, first compound 0.1 µM
[9] = second compound 0.1 µM, first compound 0.316 µM
[10] = second compound 0.1 µM, first compound 1 µM
[11] = second compound 0.1 µM, first compound 3.16 µM
[12] = second compound 0.1 µM, first compound 10 µM
[13] = second compound 0.316 µM, first compound 0.0316 µM
[14] = second compound 0.316 µM, first compound 0.1 µM
[15] = second compound 0.316 µM, first compound 0.316 µM
[16] = second compound 0.316 µM, first compound 1 µM
[17] = second compound 0.316 µM, first compound 3.16 µM
[18] = second compound 0.316 µM, first compound 10 µM
[19] = second compound 1 µM, first compound 0.0316 µM
[20] = second compound 1 µM, first compound 0.1 µM
[21] = second compound 1 µM, first compound 0.316 µM
[22] = second compound 1 µM, first compound 1 µM
[23] = second compound 1 µM, first compound 3.16 µM
[24] = second compound 1 µM, first compound 10 µM
[25] = second compound 3.16 µM, first compound 0.0316 µM
[26] = second compound 3.16 µM, first compound 0.1 µM
[27] = second compound 3.16 µM, first compound 0.316 µM
[28] = second compound 3.16 µM, first compound 1 µM
[29] = second compound 3.16 µM, first compound 3.16 µM
[30] = second compound 3.16 µM, first compound 10 µM
[31] = second compound 10 µM, first compound 0.0316 µM
[32] = second compound 10 µM, first compound 0.1 µM
[33] = second compound 10 µM, first compound 0.316 µM
[34] = second compound 10 µM, first compound 1 µM
[35] = second compound 10 µM, first compound 3.16 µM
[36] = second compound 10 µM, first compound 10 µM
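Also: spheroids exposed to the agents for 7 days before readout.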

CC1(C)CCC(CN2CCN(c3ccc(C(=O)NS(=O)(=O)c4ccc(NCC5CCOCC5)c([N+](=O)[O-])c4)c(Oc4cnc5[nH]ccc5c4)c3)CC2)=C(c2ccc(Cl)cc2)C1 + CNC(=O)c1ccc(Nc2nc(OC3CCCC3)c3c(-c4ccc5nc(C)oc5c4)c[nH]c3n2)c(OC)c1
IC50 (second compound 0.0316 µM): > 10 µM
IC50 (second compound 0.1 µM): > 10 µM
IC50 (second compound 0.316 µM): 4.84 µM
IC50 (second compound 1 µM): < 0.0316 µM
IC50 (second compound 3.16 µM): < 0.0316 µM
IC50 (second compound 10 µM): < 0.0316 µM
viability, T/C [1]: 108%
viability, T/C [2]: 96%
viability, T/C [3]: 102%
viability, T/C [4]: 88%
viability, T/C [5]: 108%
viability, T/C [6]: 66.1%
viability, T/C [7]: 108%
viability, T/C [8]: 105%
viability, T/C [9]: 110%
viability, T/C [10]: 104%
viability, T/C [11]: 113%
viability, T/C [12]: 61.5%
viability, T/C [13]: 69.8%
viability, T/C [14]: 62.8%
viability, T/C [15]: 61.3%
viability, T/C [16]: 58.7%
viability, T/C [17]: 64.4%
viability, T/C [18]: 27.1%
viability, T/C [19]: 36.3%
viability, T/C [20]: 37.7%
viability, T/C [21]: 27.1%
viability, T/C [22]: 38.2%
viability, T/C [23]: 31.8%
viability, T/C [24]: 17.9%
viability, T/C [25]: 29.6%
viability, T/C [26]: 33.6%
viability, T/C [27]: 28.6%
viability, T/C [28]: 31.3%
viability, T/C [29]: 29%
viability, T/C [30]: 15.4%
viability, T/C [31]: 31.4%
viability, T/C [32]: 25.7%
viability, T/C [33]: 26%
viability, T/C [34]: 25%
viability, T/C [35]: 29.4%
viability, T/C [36]: 13.6%

CC1COCCN1c1cc(C2(S(C)(=N)=O)CC2)nc(-c2ccnc3[nH]ccc23)n1 (centres undefined) + CNC(=O)c1ccc(Nc2nc(OC3CCCC3)c3c(-c4ccc5nc(C)oc5c4)c[nH]c3n2)c(OC)c1
IC50 (second compound 0.0316 µM): > 10 µM
IC50 (second compound 0.1 µM): > 10 µM
IC50 (second compound 0.316 µM): > 10 µM
IC50 (second compound 1 µM): < 0.0316 µM
IC50 (second compound 3.16 µM): < 0.0316 µM
IC50 (second compound 10 µM): < 0.0316 µM
viability, T/C [1]: 88.2%
viability, T/C [2]: 108%
viability, T/C [3]: 98.8%
viability, T/C [4]: 115%
viability, T/C [5]: 106%
viability, T/C [6]: 104%
viability, T/C [7]: 111%
viability, T/C [8]: 119%
viability, T/C [9]: 115%
viability, T/C [10]: 116%
viability, T/C [11]: 101%
viability, T/C [12]: 80.5%
viability, T/C [13]: 67.4%
viability, T/C [14]: 56%
viability, T/C [15]: 55%
viability, T/C [16]: 66.9%
viability, T/C [17]: 75.9%
viability, T/C [18]: 40.5%
viability, T/C [19]: 35.2%
viability, T/C [20]: 33.1%
viability, T/C [21]: 34.1%
viability, T/C [22]: 34.7%
viability, T/C [23]: 27%
viability, T/C [24]: 14.7%
viability, T/C [25]: 34.1%
viability, T/C [26]: 32.8%
viability, T/C [27]: 31.1%
viability, T/C [28]: 32.3%
viability, T/C [29]: 21.1%
viability, T/C [30]: 9.92%
viability, T/C [31]: 32%
viability, T/C [32]: 27.5%
viability, T/C [33]: 28.2%
viability, T/C [34]: 27.5%
viability, T/C [35]: 20.6%
viability, T/C [36]: 9.29%
